According to patent publication US9988400B2 (Genentech, Inc., priority 2013, dated 2018):

Target: T1, HEK cells stably transfected with tetracycline inducible hNR1 and hNR2A (Homo sapiens, UniProt Q05586+Q12879)
T1 construct: expressed in transfected cells; host or cells: HEK cells, stably transfected, tetracycline/doxycycline inducible
Experiment: Assay 1: Cell-Based Assay, cytosolic calcium response to positive allosteric modulators (with 30 μM glycine and 300 nM L-glutamate, EC30)
Conditions: Table 2; for EC50: cytosolic calcium response, with 30 μM glycine and 300 nM L-glutamate (EC30), — = no plateau was reached; for Max %: responses scaled relative to 100 μM L-glutamate maximal response (100%) and 0 μM L-glutamate (0%)
Summary of the method: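 Cells induced 24 h with 7.5 μg mL^−1 doxycycline plus 500 μM (+)-ketamine, loaded 60 min at 37 °C with calcium dye in Mg-free HBSS (1.8 mM Ca, probenecid, 10 μM (+)-ketamine, pH 7.15). Peak RFU over 5 min after compound addition, scaled to 100 μM L-glutamate (100%) and 0 μM (0%); four-parameter Hill fit for EC50, max % if no plateau.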

T1 sequence (Q12879 23-1464, other chains not shown): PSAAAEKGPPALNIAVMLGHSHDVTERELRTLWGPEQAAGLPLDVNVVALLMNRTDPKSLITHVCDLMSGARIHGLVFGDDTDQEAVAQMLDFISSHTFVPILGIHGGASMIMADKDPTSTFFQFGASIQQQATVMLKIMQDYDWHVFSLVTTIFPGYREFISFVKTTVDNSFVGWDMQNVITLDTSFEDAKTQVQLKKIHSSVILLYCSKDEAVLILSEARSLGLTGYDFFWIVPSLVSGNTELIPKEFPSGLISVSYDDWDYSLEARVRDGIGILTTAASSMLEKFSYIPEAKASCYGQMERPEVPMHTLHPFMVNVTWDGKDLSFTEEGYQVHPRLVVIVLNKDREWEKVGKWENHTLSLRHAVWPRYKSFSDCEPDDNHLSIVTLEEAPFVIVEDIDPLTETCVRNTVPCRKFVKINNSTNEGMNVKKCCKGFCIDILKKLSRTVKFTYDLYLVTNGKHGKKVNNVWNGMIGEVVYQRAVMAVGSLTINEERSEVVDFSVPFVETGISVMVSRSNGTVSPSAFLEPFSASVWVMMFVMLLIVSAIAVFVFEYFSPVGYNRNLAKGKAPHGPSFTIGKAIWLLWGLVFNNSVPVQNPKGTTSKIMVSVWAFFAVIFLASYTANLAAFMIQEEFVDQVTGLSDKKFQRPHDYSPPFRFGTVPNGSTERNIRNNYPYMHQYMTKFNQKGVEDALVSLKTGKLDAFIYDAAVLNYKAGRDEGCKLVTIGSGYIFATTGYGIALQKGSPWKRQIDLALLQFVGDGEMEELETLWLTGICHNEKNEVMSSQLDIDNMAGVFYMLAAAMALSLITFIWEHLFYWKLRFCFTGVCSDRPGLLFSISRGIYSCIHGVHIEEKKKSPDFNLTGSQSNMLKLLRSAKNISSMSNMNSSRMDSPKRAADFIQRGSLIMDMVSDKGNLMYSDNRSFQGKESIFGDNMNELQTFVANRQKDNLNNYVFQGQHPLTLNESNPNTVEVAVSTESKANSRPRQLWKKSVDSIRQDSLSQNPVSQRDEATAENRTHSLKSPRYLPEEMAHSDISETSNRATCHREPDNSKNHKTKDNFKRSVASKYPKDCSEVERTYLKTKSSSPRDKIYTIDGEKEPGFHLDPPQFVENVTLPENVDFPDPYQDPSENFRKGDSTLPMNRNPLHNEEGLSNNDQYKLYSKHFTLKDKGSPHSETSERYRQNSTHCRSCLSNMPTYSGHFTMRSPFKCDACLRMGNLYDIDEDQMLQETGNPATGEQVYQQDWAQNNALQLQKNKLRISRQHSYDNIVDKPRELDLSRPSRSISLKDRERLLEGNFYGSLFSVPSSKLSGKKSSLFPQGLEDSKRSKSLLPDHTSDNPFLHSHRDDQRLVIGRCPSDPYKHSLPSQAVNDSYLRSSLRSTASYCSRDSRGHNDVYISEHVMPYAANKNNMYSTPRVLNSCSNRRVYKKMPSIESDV

Row | SMILES | EC50 | Max %
1 | CCN(Cc1cc(=O)n2c(CCCOC)c(C)sc2n1)c1ccc(F)cc1 [Example 13.2, 7-((Ethyl(4-fluorophenyl)amino)methyl)-3-(3-methoxypropyl)-2-methyl-5H-thiazolo[3,2-a]pyrimidin-5-one] | 913 nM | 130%
2 | CCN(Cc1cc(=O)n2c(CCCCO)c(C)sc2n1)c1ccc(F)cc1 [Example 13.3, 7-((Ethyl(4-fluorophenyl)amino)methyl)-3-(4-hydroxybutyl)-2-methyl-5H-thiazolo[3,2-a]pyrimidin-5-one] | 783 nM | 137%
3 | CCN(Cc1cc(=O)n2c(CCO)c(C)sc2n1)c1ccc(F)cc1 [Example 13.4, 7-((Ethyl(4-fluorophenyl)amino)methyl)-3-(2-hydroxyethyl)-2-methyl-5H-thiazolo[3,2-a]pyrimidin-5-one] | 777 nM | 185%
4 | CCN(Cc1cc(=O)n2c(CCOC)c(C)sc2n1)c1ccc(F)cc1 [Example 13.5, 7-[[Ethyl(4-fluorophenyl)amino]methyl]-3-(2-methoxyethyl)-2-methyl-5H-[1,3]thiazolo[3,2-a]pyrimidin-5-one] | 1000 nM | 152%
5 | CCN(Cc1cc(=O)n2c(CCC(N)=O)c(C)sc2n1)c1ccc(F)cc1 [Example 13.6, 3-(7-[[ethyl(4-fluorophenyl)amino]methyl]-2-methyl-5-oxo-5H-[1,3]thiazolo[3,2-a]pyrimidin-3-yl)propanamide] | 1400 nM | 125%
6 | CCN(Cc1cc(=O)n2c(CCC#N)c(C)sc2n1)c1ccc(F)cc1 [Example 13.7, 3-[7-[(N-ethyl-4-fluoro-anilino)methyl]-2-methyl-5-oxo-thiazolo[3,2-a]pyrimidin-3-yl]propanenitrile] | 547 nM | 137%
7 | CCN(Cc1cc(=O)n2c(CCC(=O)N(C)C)c(C)sc2n1)c1ccc(F)cc1 [Example 13.8, 3-[7-[(N-ethyl-4-fluoro-anilino)methyl]-2-methyl-5-oxo-thiazolo[3,2-a]pyrimidin-3-yl]-N,N-dimethyl-propanamide] | – | 61.2%
8 | CCN(Cc1cc(=O)n2c(CCC(C)(C)O)c(C)sc2n1)c1ccc(F)cc1 [Example 13.9, 7-[[Ethyl(4-fluorophenyl)amino]methyl]-3-(3-hydroxy-3-methylbutyl)-2-methyl-5H-[1,3]thiazolo[3,2-a]pyrimidin-5-one] | 5000 nM | 166%

Results, then the compound that gave them:

Row | EC50 | Max % | SMILES
9 | 2600 nM | 163% | CCN(Cc1cc(=O)n2c(C3CC3C(N)=O)c(C)sc2n1)c1ccc(F)cc1 (centres unmarked) [Example 14.1, 2-[7-[(N-ethyl-4-fluoro-anilino)methyl]-2-methyl-5-oxo-thiazolo[3,2-a]pyrimidin-3-yl]cyclopropanecarboxamide]
10 | 122 nM | 205% | CCN(Cc1cc(=O)n2c(C3CC3C#N)c(C)sc2n1)c1ccc(F)cc1 (centres unmarked) [Example 14.2, 2-(7-[[ethyl(4-fluorophenyl)amino]methyl]-2-methyl-5-oxo-5H-[1,3]thiazolo[3,2-a]pyrimidin-3-yl)cyclopropane-1-carbonitrile]
11 | 2200 nM | 144% | CCc1cc(C(F)(F)F)nn1Cc1cc(=O)n2c(C3CC3CO)c(C)sc2n1 (centres unmarked) [Example 15.1, 7-((5-ethyl-3-(trifluoromethyl)-1H-pyrazol-1-yl)methyl)-3-(2-(hydroxymethyl)cyclopropyl)-2-methyl-5H-thiazolo[3,2-a]pyrimidin-5-one]
12 | 18600 nM | 117% | Cc1sc2nc(Cn3nc(C4CC4)c(F)c3C(F)(F)F)cc(=O)n2c1C1CC1CO (stereo not drawn) [Example 15.9, 7-((3-cyclopropyl-4-fluoro-5-(trifluoromethyl)-1H-pyrazol-1-yl)methyl)-3-(trans-2-(hydroxymethyl)cyclopropyl)-2-methyl-5H-thiazolo[3,2-a]pyrimidin-5-one]
13 | 3100 nM | 133% | Cc1sc2nc(Cn3nc(C(F)(F)F)c(F)c3C3CC3)cc(=O)n2c1C1CC1CO (stereo not drawn) [Example 15.10, 7-((5-cyclopropyl-4-fluoro-3-(trifluoromethyl)-1H-pyrazol-1-yl)methyl)-3-(trans-2-(hydroxymethyl)cyclopropyl)-2-methyl-5H-thiazolo[3,2-a]pyrimidin-5-one]
14 | 1400 nM | 138% | CC(C)c1sc2nc(Cn3nc(C(F)(F)F)cc3C3CC3)cc(=O)n2c1C1CC1CO (centres unmarked) [Example 15.24, 7-[[5-cyclopropyl-3-(trifluoromethyl)pyrazol-1-yl]methyl]-3[2-(hydroxymethyl)cyclopropyl]-2-isopropyl-thiazolo[3,2-a]pyrimidin-5-one]
15 | – | 80.8% | Cc1sc2nc(Cn3nc(C4CC4)cc3C(F)(F)F)cc(=O)n2c1-c1cncnc1 [Example 15.28, 7-((3-cyclopropyl-5-(trifluoromethyl)-1H-pyrazol-1-yl)methyl)-2-methyl-3-(pyrimidin-5-yl)-5H-thiazolo[3,2-a]pyrimidin-5-one]
16 | 7000 nM | 135% | Cc1sc2nc(Cn3nc(C(F)(F)F)cc3C3CC3)cc(=O)n2c1-c1cncnc1 [Example 15.29, 7-((5-cyclopropyl-3-(trifluoromethyl)-1H-pyrazol-1-yl)methyl)-2-methyl-3-(pyrimidin-5-yl)-5H-thiazolo[3,2-a]pyrimidin-5-one]
17 | 22000 nM | 116% | Cc1sc2nc(Cn3nc(C(F)(F)F)cc3C(F)(F)F)cc(=O)n2c1-c1cncnc1 [Example 15.30, 7-((3,5-bis(trifluoromethyl)-1H-pyrazol-1-yl)methyl)-2-methyl-3-(pyrimidin-5-yl)-5H-thiazolo[3,2-a]pyrimidin-5-one]
18 | – | 57.8% | Cc1sc2nc(Cn3nccc3C(F)(F)F)cc(=O)n2c1-c1cncnc1 [Example 15.31, 2-methyl-3-(pyrimidin-5-yl)-7-((5-(trifluoromethyl)-1H-pyrazol-1-yl)methyl)-5H-thiazolo[3,2-a]pyrimidin-5-one]
19 | – | 94.8% | Cc1sc2nc(Cn3nc(C(F)(F)F)cc3C)cc(=O)n2c1-c1cncnc1 [Example 15.32, 2-methyl-7-((5-methyl-3-(trifluoromethyl)-1H-pyrazol-1-yl)methyl)-3-(pyrimidin-5-yl)-5H-thiazolo [3,2-a]pyrimidin-5-one]
20 | 18800 nM | 51.8% | Cc1cn2c(=O)cc(Cn3nc(C(F)(F)F)cc3C(F)(F)F)nc2s1 [Example 15.33, 7-((3,5-bis(trifluoromethyl)-1H-pyrazol-1-yl)methyl)-2-methyl-5H-thiazolo[3,2-a]pyrimidin-5-one]
21 | – | 48.2% | Cc1sc2nc(Cn3ncc4ccccc43)cc(=O)n2c1-c1cncnc1 [Example 15.34, 7-((1H-indazol-1-yl)methyl)-2-methyl-3-(pyrimidin-5-yl)-5H-thiazolo[3,2-a]pyrimidin-5-one]
22 | 2300 nM | 140% | CNC(=O)c1c(C)sc2nc(Cn3nc(C(F)(F)F)cc3C3CC3)cc(=O)n12 [Example 16.1, 7-((5-cyclopropyl-3-(trifluoromethyl)-1H-pyrazol-1-yl)methyl)-N,2-dimethyl-5-oxo-5H-thiazolo[3,2-a]pyrimidine-3-carboxamide]
23 | 11700 nM | 110% | CNC(=O)c1c(C)sc2nc(Cn3nc(C4CC4)cc3C(F)(F)F)cc(=O)n12 [Example 16.2, 7-((3-cyclopropyl-5-(trifluoromethyl)-1H-pyrazol-1-yl)methyl)-N,2-dimethyl-5-oxo-5H-thiazolo[3,2-a]pyrimidine-3-carboxamide]
